Source: patent publication US20230011398A1, “COMBINATION THERAPY APPROACH TO ELIMINATE HIV INFECTIONS” (priority 2019, published 2023)

Key:
[1] = system: HIV-1-infected T cells; assay: Annexin V / DEVD-FITC / p24 cell death assay in T cells with or without HIV-1 infection; format: cell-based, human
Experimental: Naïve T cells, activated T cells, CMT or EMT with or without infection with HIV-1 (NL4-3, 1 MOI) were cultured for 4 days in the presence of 30 nM CCL19 and 0.3 ng/ml IL-2 for 4 days to establish latent HIV infection. […] The cells were then incubated with 1 μM FITC-DEVD-FMK (Biovision), followed by staining with APC-Annexin V (Biolegend) and intracellular staining with PE-anti-HIV p24. The cells were analyzed by flow cytometry. The percentage of cell death was calculated by the loss of live cells negative for annexin V and DEVD staining by comparing treated and untreated groups: (untreated—treated)/untreated x 100%.

[2] = system: PBMCs from HIV-1-infected patients; assay: In vitro treatment of PBMCs from HIV-1-infected patients, HIV-1 mRNA by RT-PCR; format: cell-based, human; details: outpatients undergoing ART, no active virus production
Experimental: Quantification of HIV-1 mRNA and DNA. HIV-1 mRNA was measured by RT-PCR similar to the described protocols. LTR-GAG was amplified with forward primer (LTR-GAG-AF), 5′-[…]-3′ (SEQ. ID NO. 9) and reverse primer (LTR-GAG-AR), 5′-[…] […]-3′ (SEQ. ID NO. 10), and detected with the LTR-GAG probe, SHEX/[…]/ZEN /[…]/3IABkFQ (SEQ. ID NO. 11). HIV-1 pol-1 was amplified with POL-1 forward primer (POL-1-AF), 5′-[…]-3′ (SEQ. ID NO. 12) and reverse primer (POL-1-AR), 5′-[…]-3′ (SEQ. ID NO. 13), and detected with the pol-1 probe FAM/[…]/ZEN/[…]/3IABKFQ (SEQ. ID NO. 14) in iTaq Universal Probes Supermix (Bio-Rad). The reaction was carried out by iTaq Universal Probes Supermix (Bio-Rad) with a QuantStudio 5 Real-Time PCR System and analyzed with the QuantStudio Design and Analysis Software (Applied Biosystem). Cycle threshold (Ct) values were calibrated using standard curve generated with the standard samples with known amounts of viral copies.
Treatment of PBMCs from HIV-1-infected patients. PBMCs from HIV-1 patients were resuspended in RPMI complete medium containing and 0.3 ng/ml IL-2 and 50 ng/ml M-CSF and cultured with 0.2 μM BMS-626529, 0.2 μM raltegravir, 25 nM IDB, 20 nM ABT-263, 0.1 μM SAR405 and 0.25 μM JQ1 for 2 days as one cycle of treatments. The cells were then washed and cultures in the same medium for next cycle of culture. […]

## CC1=C[C@]23C(=O)[C@@H](C=C(COC(=O)c4ccccc4)[C@@H](O)[C@]2(O)[C@H]1OC(=O)c1ccccc1)[C@H]1[C@@H](C[C@H]3C)C1(C)C [IDB, ingenol 3,20-dibenzoate]
[1]; 0.1 μM IDB, 48 h
  cell death in HIV-1-infected T cells (Annexin V, cleavage of DEVD): induced cell death in HIV-1-infected T cells
  cell death in uninfected cells: relatively resistant
[1]; HIV-1-infected CMT, 100 nM IDB 24 h
  caspase-3 activities measured by cleavage of DEVD: increased caspase-3 activities
[1]; NL4-3 1 MOI, 100 nM IDB 24 h
  cell death in HIV-1-infected CMT, Annexin V staining: induced cell death
[2]
  HIV-1 detection in PBMCs after stimulation with IDB: could be detected
